Data published in the Deep4Chem optical property database.
Values belong to the compound of their own block, whether it stands above or below them.

Assay: photoluminescence quantum yield (fraction); solvent given as SMILES
[1] = in O=P(c1ccccc1)(c1ccccc1)c1ccccc1Oc1ccccc1P(=O)(c1ccccc1)c1ccccc1

SMILES: CC(C)c1cc(C(C)C)c(B2c3ccccc3Oc3cc(-n4c5ccccc5c5ccc6c(c7ccccc7n6-c6ccccc6)c54)ccc32)c(C(C)C)c1
photoluminescence quantum yield (in CC(C)c1cc(C(C)C)c(-c2ccc(-n3c4ccccc4n4c5ccccc5nc34)nc2)c(C(C)C)c1): 0.506
photoluminescence quantum yield [1]: 0.631

SMILES: O=c1cc2cc(O)c3cccc4ccc(o1)c2c43
photoluminescence quantum yield (in CC1CCCO1): 0.35

SMILES: CN(C)c1ccc(C=C/C=C/C=C/c2ccc(C#N)cc2)cc1
photoluminescence quantum yield (in C1CCOC1): 0.112
photoluminescence quantum yield (in CC#N): 0.261
photoluminescence quantum yield (in CCCC#N): 0.142
photoluminescence quantum yield (in CCCCCC): 0.072
photoluminescence quantum yield (in CCCCOCCCC): 0.081
photoluminescence quantum yield (in CCO): 0.211
photoluminescence quantum yield (in CCOCC): 0.092

SMILES: Cc1c(C)n2c(COC(=O)c3ccc(F)cc3)c(C)c(=O)n2c1=O
photoluminescence quantum yield (in CCO): 0.631

SMILES: CCn1c2ccccc2c2cc(-c3cc(-c4ccc5c(c4)c4ccccc4n5CC)nc(SC)n3)ccc21
photoluminescence quantum yield (in C1CCOC1): 0.23
photoluminescence quantum yield (in CCOC(C)=O): 0.39
photoluminescence quantum yield (in CN(C)C=O): 0.46
photoluminescence quantum yield (in Cc1ccccc1): 0.35
photoluminescence quantum yield (in ClCCl): 0.31

SMILES: c1ccc(-c2nn(-c3ccccc3)c3nc4ccc(N(c5ccccc5)c5ccccc5)cc4cc23)cc1
photoluminescence quantum yield (in C1CCCCC1): 0.76
photoluminescence quantum yield (in C1CCOC1): 0.7
photoluminescence quantum yield (in CC#N): 0.46
photoluminescence quantum yield (in CC(C)=O): 0.59
photoluminescence quantum yield (in CCCCCl): 0.7
photoluminescence quantum yield (in CCCCOCCCC): 0.76
photoluminescence quantum yield (in CN(C)C=O): 0.5

SMILES: CC1=CC(C)=[N+]2C1=C(c1c3ccccc3cc3ccccc13)c1c(C)cc(C)n1[B-]2(F)F
photoluminescence quantum yield (in CC#N): 0.006
photoluminescence quantum yield (in CCCCCC): 0.99
photoluminescence quantum yield (in CCO): 0.038
photoluminescence quantum yield (in CN(C)C=O): 0.011
photoluminescence quantum yield (in Cc1ccccc1): 0.92
photoluminescence quantum yield (in ClCCl): 0.072

SMILES: c1ccc(-c2nc(-c3ccccc3)nc(-c3ccc(-n4c5ccccc5c5ccc6c7ccccc7n(-c7ccccc7)c6c54)cc3)n2)cc1
photoluminescence quantum yield (in O=P(c1ccccc1)(c1ccccc1)c1ccc2oc3ccc(P(=O)(c4ccccc4)c4ccccc4)cc3c2c1): 0.84

SMILES: COc1cccc(-c2c3ccccc3c3n2[B-](F)(F)[N+]2=Cc4c5ccccc5c(-c5cccc(OC)c5)n4[B-](F)(F)[N+]2=C3)c1
photoluminescence quantum yield (in CC#N): 0.24
photoluminescence quantum yield (in CCCCCC): 0.34
photoluminescence quantum yield (in CN(C)C=O): 0.27
photoluminescence quantum yield (in Cc1ccccc1): 0.34
photoluminescence quantum yield (in ClCCl): 0.36

SMILES: COC(=O)/C(C#N)=c1\s/c(=c2/s/c(=C(/C#N)C(=O)OC)c3cc(-c4ccc(C)cc4)sc23)c2sc(-c3ccc(C)cc3)cc12
photoluminescence quantum yield (in Cc1ccccc1): 0.325

SMILES: Cn1c(=O)c2c(ncn2C)n(C)c1=O
photoluminescence quantum yield (in O): 0

SMILES: CC/[NH+]=c1\cc2oc3cc(NCCC(=O)NC(C(=O)OC)C(C)C)c4ccccc4c3nc-2cc1C (stereo unspecified)
photoluminescence quantum yield (in CCO): 0.4
photoluminescence quantum yield (in O): 0.26

SMILES: COc1ccc(N(c2ccc(/C=C(\C)c3ccccc3)cc2)c2ccc(/C=C(\C)c3ccccc3)cc2)cc1
photoluminescence quantum yield (in Cc1ccccc1): 0.48

SMILES: c1ccc(-c2nc(-c3ccccc3)nc(-c3ccc(N4c5ccccc5C5(c6ccccc64)c4ccccc4N(c4ccc(-c6nc(-c7ccccc7)nc(-c7ccccc7)n6)cc4)c4ccccc45)cc3)n2)cc1
photoluminescence quantum yield [1]: 0.79

SMILES: CC1(C)C(/C=C/C=C/C=C/C=C2/N(S(=O)(=O)[O-])c3ccc(S(=O)(=O)[O-])cc3C2(C)C)=[N+](S(=O)(=O)[O-])c2ccc(S(=O)(=O)[O-])cc21
photoluminescence quantum yield (in CO): 0.55
photoluminescence quantum yield (in O): 0.29

SMILES: N#Cc1c(-n2nnc3c2CCC2C(CC3)[C@@H]2CO)n([C@H]2C[C@H](O)[C@@H](CO)O2)c2ncnc(N)c12 (stereo partly specified)
photoluminescence quantum yield (in CO): 0.014

SMILES: CCN(CC)c1ccc2ccc(=O)oc2c1
photoluminescence quantum yield (in CC(C)=O): 0.55
photoluminescence quantum yield (in CCCCCC): 0.85
photoluminescence quantum yield (in CCCCCCC): 0.85
photoluminescence quantum yield (in CCCCO): 0.47
photoluminescence quantum yield (in CCCO): 0.52
photoluminescence quantum yield (in CCO): 0.39
photoluminescence quantum yield (in CCOCC): 0.8
photoluminescence quantum yield (in CN(C)C=O): 0.56
photoluminescence quantum yield (in CO): 0.27
photoluminescence quantum yield (in Cc1ccccc1): 0.83
photoluminescence quantum yield (in ClC(Cl)Cl): 0.62
photoluminescence quantum yield (in ClCCl): 0.9
photoluminescence quantum yield (in OCCO): 0.25
photoluminescence quantum yield (in c1ccccc1): 0.83

SMILES: CCOC(=O)c1sc(SC)c2c(=O)n(C)nnc12
photoluminescence quantum yield (in C1CCOC1): 0.016
photoluminescence quantum yield (in CC#N): 0.029
photoluminescence quantum yield (in CCO): 0.054
photoluminescence quantum yield (in CN(C)C=O): 0.013
photoluminescence quantum yield (in CO): 0.052
photoluminescence quantum yield (in CS(C)=O): 0.0077

SMILES: CSC1=C(C)C2=C(c3ccc(C)cc3)c3c(C)c(Cl)c(C)n3[B-](F)(F)[N+]2=C1C
photoluminescence quantum yield (in C1CCOC1): 0.07

SMILES: Cc1nc2c(ccc3c2sc(/C=C/c2ccc(N(CCO)CCO)cc2)[n+]3C)s1
photoluminescence quantum yield (in CO): 0.023
photoluminescence quantum yield (in ClC(Cl)Cl): 0.02

SMILES: c1cc2ccc3ccc4cc3c2cc1c1ccc2ccc3ccc(cc3c2c1)c1ccc2ccc3ccc4cc3c2c1
photoluminescence quantum yield (in Cc1ccccc1): 0.75

SMILES: Fc1ccc(-c2cc3c4c(c2)CCc2cc(-c5ccc(F)cc5)cc(c2-4)CC3)cc1
photoluminescence quantum yield (in C1CCCCC1): 0.48
photoluminescence quantum yield (in C1CCOC1): 0.81
photoluminescence quantum yield (in CC#N): 0.19
photoluminescence quantum yield (in CCCCCC): 0.55
photoluminescence quantum yield (in CCO): 0.18
photoluminescence quantum yield (in CN(C)C=O): 0.56
photoluminescence quantum yield (in CO): 0.24
photoluminescence quantum yield (in Cc1ccccc1): 1
photoluminescence quantum yield (in ClC(Cl)Cl): 0.55
photoluminescence quantum yield (in ClCCl): 1

SMILES: Cc1cc(C)c(B(c2c(C)cc(C)cc2C)N2c3ccccc3C(C)(C)c3ccccc32)c(C)c1
photoluminescence quantum yield (in C1CCCCC1): 0.931
photoluminescence quantum yield (in Cc1ccccc1): 0.802
photoluminescence quantum yield (in ClCCl): 0.9

SMILES: O=c1c2cc(F)c(O)cc2oc2cc(N3CCCCC3)c(F)cc12
photoluminescence quantum yield (in CCO): 0.23

SMILES: CCCCCCCCCCN1C(=O)c2cc(NCCCOCCO)c3c4c(cc(NCCCOCCO)c(c24)C1=O)C(=O)N(CCCCCCCCCC)C3=O
photoluminescence quantum yield (in CO): 0.43
photoluminescence quantum yield (in ClC(Cl)Cl): 0.58

SMILES: CCOC(=O)c1cc(C(=O)OCC)c2cc(OC)ccc2n1
photoluminescence quantum yield (in CCO): 0.53

SMILES: CC(C)(C)c1ccc(-c2c(-c3cccc(N(c4ccccc4)c4ccccc4)c3)c(C#N)c(-c3cccc(N(c4ccccc4)c4ccccc4)c3)c(-c3ccc(C(C)(C)C)cc3)c2-c2ccc(C(C)(C)C)cc2)cc1
photoluminescence quantum yield (in C1CCOC1): 0.072

SMILES: CC[N+](CC)=c1ccc2c(C(F)(F)F)c3c(oc-2c1)-c1ccc(N(C)C)cc1CC3
photoluminescence quantum yield (in CCO): 0.163
photoluminescence quantum yield (in ClCCl): 0.336
photoluminescence quantum yield (in O): 0.039

Other lines, results leading:

photoluminescence quantum yield (in CCCCCC): 0.51
SMILES: CC(C)[Si](C#Cc1c2ccccc2c(C#C[Si](C(C)C)(C(C)C)C(C)C)c2nc3c(ccc4ccccc43)nc12)(C(C)C)C(C)C

photoluminescence quantum yield (in ClCCl): 0.047
SMILES: CCn1c2ccc(-c3cccs3)cc2c2cc(-c3cccs3)ccc21

photoluminescence quantum yield (in C1COCCO1): 0.47
photoluminescence quantum yield (in CC#N): 0.23
photoluminescence quantum yield (in CC(C)O): 0.19
photoluminescence quantum yield (in CCO): 0.13
photoluminescence quantum yield (in CCOC(C)=O): 0.29
photoluminescence quantum yield (in CN(C)C=O): 0.21
photoluminescence quantum yield (in CO): 0.07
photoluminescence quantum yield (in CS(C)=O): 0.18
photoluminescence quantum yield (in OCC(O)CO): 0.12
photoluminescence quantum yield (in OCCO): 0.08
SMILES: N#Cc1cccc2c(N)c(-c3nn([C@H]4C[C@H](O)[C@@H](CO)O4)c4ncnc(N)c34)ccc12

photoluminescence quantum yield (in C1CCOC1): 0.39
SMILES: c1ccc2c(c1)-c1ccccc1C21c2ccccc2-c2oc3c(c21)C1(c2ccccc2-c2ccccc21)c1ccccc1-3

photoluminescence quantum yield (in ClCCl): 0.68
SMILES: c1cc(-c2ccc(-n3c4ccccc4c4ccccc43)cc2)c2nsnc2c1

photoluminescence quantum yield (in ClCCl): 0.21
SMILES: COc1ccc(-c2ccc(C(=O)NC(C)(C)C)c3c2ccc2c4ccccc4c4ccccc4c23)cc1

photoluminescence quantum yield (in CC#N): 0.75
photoluminescence quantum yield (in CS(C)=O): 0.94
SMILES: c1ccc(-c2nc(-c3ccc(-c4nc(-c5ccccc5)c(-c5ccccc5)[nH]4)cc3)[nH]c2-c2ccccc2)cc1

photoluminescence quantum yield (in C1CCOC1): 0.045
SMILES: N#C/C(=C\c1ccc(C=C(c2ccccc2)c2ccccc2)cc1)c1ccccc1

photoluminescence quantum yield (in C1CCCCC1): 0.18
photoluminescence quantum yield (in CC#N): 0.04
SMILES: C[Si](C)(c1ccc2cc3ccccc3cc2c1)[Si](C)(C)c1ccc2cc3ccccc3cc2c1

photoluminescence quantum yield (in ClC(Cl)Cl): 0.41
SMILES: Ic1ccc(C2=C3C=CC4=[N+]3[B-]3(Oc5ccccc54)Oc4ccccc4-c4ccc2n43)cc1 (stereo unspecified)

photoluminescence quantum yield (in ClCCl): 0.38
SMILES: C[Si]1(C)c2ccc(-c3ccccc3)cc2C=Cc2cc(-c3ccccc3)ccc21

photoluminescence quantum yield (in ClCCl): 0.08
SMILES: CC(C)(C)NC(=O)c1ccc(-c2ccccc2)c2ccc3c4ccccc4c4ccccc4c3c12

photoluminescence quantum yield (in c1cc(-n2c3ccccc3c3ccccc32)cc(-n2c3ccccc3c3ccccc32)c1): 0.93
SMILES: N#Cc1cc(-n2c3ccccc3c3ncccc32)c(-n2c3ccccc3c3ncccc32)cc1C#N

photoluminescence quantum yield (in ClC(Cl)Cl): 0.38
SMILES: CCCCCCn1c2ccccc2c2cc(/C=C/c3cc(=O)oc4cc(C)ccc34)ccc21

photoluminescence quantum yield (in ClCCl): 0.1
SMILES: F[B-]1(F)n2c(-c3ccccc3)cc(-c3cccs3)c2N=C2C(c3cccs3)=CC(c3ccccc3)=[N+]21

photoluminescence quantum yield (in C1CCCCC1): 0.24
SMILES: CCCCCCCCOc1ccc2c3c(c4ccc(OCCCCCCCC)cc4c2c1)C(C)(C)c1ccccc1-3

photoluminescence quantum yield (in CC1CCCCC1): 0.74
SMILES: CC(C)(C)c1ccc2cc3c4cccc5cccc(c6cc(C(C)(C)C)cc(c2c1)c63)c54

photoluminescence quantum yield (in ClC(Cl)Cl): 0.113
SMILES: c1ccc(-c2nc(-c3ccccn3)[se]c2N(c2ccccc2)c2ccccc2)cc1

photoluminescence quantum yield (in ClCCl): 0.162
SMILES: c1ccc(-c2nc(-c3c[nH]c4ccccc34)n3ccccc23)cc1

photoluminescence quantum yield (in C1CCCCC1): 0.635
photoluminescence quantum yield (in CCOC(C)=O): 0.634
photoluminescence quantum yield (in CN(C)C=O): 0.51
photoluminescence quantum yield (in CO): 0.396
photoluminescence quantum yield (in ClCCl): 0.653
SMILES: CCN(CC)c1ccc2c(c1)oc(=O)c1c(C)nc3c(c(-c4ccccc4)nn3-c3ccccc3)c12

photoluminescence quantum yield (in ClCCl): 0.01
SMILES: CC(=O)c1ccc(C#Cc2ccc3c(N(C)C)cc(-c4ccccc4)cc3c2)cc1

photoluminescence quantum yield (in CCOC(C)=O): 0.61
SMILES: O=Cc1cc2c(cc3ccc4cccc5ccc2c3c45)[nH]1

photoluminescence quantum yield (in C1CCCCC1): 0.29
photoluminescence quantum yield (in C1CCOC1): 0.47
photoluminescence quantum yield (in CC#N): 0.31
SMILES: Cc1ccc2nc3c(nc2c1)c(-c1ccccc1)nn3C

photoluminescence quantum yield (in CS(C)=O): 0.01
SMILES: C(/C=C/Nc1cccc2ccccc12)=[NH+]c1cccc2ccccc12

photoluminescence quantum yield (in ClCCl): 0.94
SMILES: c1ccc(-c2ccc3c4ccc(-c5ccccc5)c5c(-c6ccccc6)ccc(c6cccc2c63)c54)cc1
